# Patent US20050038007A1, “Dosage forms of cholesteryl ester transfer protein inhibitors and HMG-CoA reductase inhibitors” (Pfizer Inc, priority 2003, published 2005)
# Assay: Aqueous solubility of torcetrapib
# Format: physicochemical
# Conditions: water (aqueous), at about 22° C.
# Description: The CETP inhibitor may be any compound capable of inhibiting the cholesteryl ester transfer protein. […] Many CETP inhibitors have even lower solubilities (some even less than 0.1 μg/mL), and require dramatic concentration enhancement to be sufficiently bioavailable upon oral dosing for effective plasma concentrations to be reached at practical doses.
# CETP inhibitors, in particular torcetrapib, and methods for preparing such compounds are disclosed in detail in U.S. Pat. Nos. 6,197,786 and 6,313,142, in PCT Application Nos. WO 01/40190A1, WO 02/088085A2, and WO 02/088069A2, the disclosures of which are herein incorporated by reference. Torcetrapib has an unusually low solubility in aqueous environments such as the lumenal fluid of the human GI tract. The aqueous solubility of torcetrapib is less than about 0.04 μg/ml. Torcetrapib must be presented to the GI tract in a solubility-improved form in order to achieve a sufficient drug concentration in the GI tract in order to achieve sufficient absorption into the blood to elicit the desired therapeutic effect.
smiles,measurement,value
"CCOC(=O)N1c2ccc(C(F)(F)F)cc2[C@@H](N(Cc2cc(C(F)(F)F)cc(C(F)(F)F)c2)C(=O)OC)C[C@H]1CC [Torcetrapib, [2R,4S]-4-[(3,5-bis-trifluoromethyl-benzyl)-methoxycarbonyl-amino]-2-ethyl-6-trifluoromethyl-3,4-dihydro-2H-quinoline-1-carboxylic acid ethyl ester]",solubility,< 0.04 µg/mL
